Values joined by “and” are separate entries in the source; they are usually repeats but may differ in a detail not shown here. Equal values may be shown once. Where a SMILES comes first, the peptide text is derived from it. Where no end group is shown, it is not given here. [ ]: non-standard residue; d: D form. pS = N[C@@H](COP(=O)(O)O)C(=O)O
Columns and labels:
14-3-3 zeta [1] = biological target: T1, 14-3-3 zeta (Homo sapiens, UniProt P63104); experiment: SPR competitive inhibition of 14-3-3 zeta binding to chip-coupled phosphorylated Raf-259 peptide; conditions: 14-3-3 zeta 0.5-1.0 μM; competitor 1-50 μM; relative affinity only
T1 construct: made in house; host or cells: E. coli DH5α (vector pGEX-KT)
T1 sequence (P63104 1-245): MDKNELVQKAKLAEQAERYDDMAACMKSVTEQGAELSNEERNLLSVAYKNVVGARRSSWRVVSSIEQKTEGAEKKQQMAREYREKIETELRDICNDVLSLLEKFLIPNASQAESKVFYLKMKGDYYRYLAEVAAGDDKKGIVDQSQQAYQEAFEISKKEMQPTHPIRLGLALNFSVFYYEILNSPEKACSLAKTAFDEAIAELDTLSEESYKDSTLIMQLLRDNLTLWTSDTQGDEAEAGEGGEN
Procedure: (§1) The ability of each peptide to inhibit binding of 14-3-3 zeta to the phosphorylated peptide was then tested in a range of concentrations between 1 and 50 μM. 14-3-3 zeta was prepared according to the methods in Example 1 and binding affinities and specificities were determined using the peptides in Table 2. The 14-3-3 zeta fusion proteins (0.5-1.0 μM) were pre-incubated with a given peptide at concentrations between 1 μM and 50 μM. 14-3-3 zeta was then infused across a sensor chip surface which had been previously coupled with the phosphorylated Raf-259 peptide (SEQ ID NO: 4). IC50 values were determined by plotting the concentration of competitor peptide required to achieve a 50% reduction in equilibrium binding.

14-3-3 eta = biological target: T2, 14-3-3 eta (Homo sapiens, UniProt Q04917); experiment: SPR competitive inhibition of 14-3-3 eta binding to phosphorylated Raf-259 peptide; conditions: isoform eta
T2 construct: made in house; host or cells: E. coli DH5α (vector pGEX-KT)
T2 sequence (Q04917 1-246): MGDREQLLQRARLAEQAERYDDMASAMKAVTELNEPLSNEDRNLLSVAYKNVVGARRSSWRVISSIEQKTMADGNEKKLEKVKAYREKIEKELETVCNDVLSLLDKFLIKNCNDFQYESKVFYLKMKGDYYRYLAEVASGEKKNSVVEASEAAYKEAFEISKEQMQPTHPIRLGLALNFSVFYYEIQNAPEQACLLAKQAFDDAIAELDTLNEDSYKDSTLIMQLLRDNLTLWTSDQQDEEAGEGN
Procedure: as §1
(§2) There are seven known isoforms of 14-3-3 which form homo- and heterodimers in vivo. If different isoforms of 14-3-3 could bind to proteins with distinct specificities, heterodimeric forms of 14-3-3 might function as modular linker proteins, bringing together different proteins into a single complex. We were, therefore, interested in determining whether different 14-3-3 isoforms recognize phosphoserine in a sequence specific fashion. This hypothesis was tested by expressing and purifying three other 14-3-3 isoforms, eta, beta and tau, and measuring their affinity towards the panel of phosphorylated peptides generated above. Using the Surface Plasmon Resonance method, the "on" and "off" rates for 14-3-3 binding to the phosphorylated Raf-259 peptide were calculated (Table 6).
(§3) Competitive inhibition with the mutated phosphorylated Raf-1 peptides was used to determine whether their specificities were similar (Table 7). In each case, the calculated IC50 s were very similar to those calculated for 14-3-3 zeta.

14-3-3 beta = biological target: T3, 14-3-3 beta (Homo sapiens, UniProt P31946); experiment: SPR competitive inhibition of 14-3-3 beta binding to phosphorylated Raf-259 peptide; conditions: isoform beta
T3 construct: made in house; host or cells: E. coli DH5α (vector pGEX-KT)
T3 sequence (P31946 1-246): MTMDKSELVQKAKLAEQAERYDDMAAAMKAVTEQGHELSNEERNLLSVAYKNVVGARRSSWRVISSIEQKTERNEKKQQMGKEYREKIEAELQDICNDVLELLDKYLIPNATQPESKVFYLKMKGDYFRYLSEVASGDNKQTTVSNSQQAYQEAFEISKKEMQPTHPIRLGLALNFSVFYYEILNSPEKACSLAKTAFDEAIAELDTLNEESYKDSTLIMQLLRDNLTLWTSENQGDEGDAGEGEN
Procedure: as §1, §2, §3

14-3-3 tau = biological target: T4, 14-3-3 tau (Homo sapiens, UniProt P27348); experiment: SPR competitive inhibition of 14-3-3 tau binding to phosphorylated Raf-259 peptide; conditions: isoform tau
T4 construct: made in house; host or cells: E. coli DH5α (vector pGEX-KT)
T4 sequence (P27348 1-245): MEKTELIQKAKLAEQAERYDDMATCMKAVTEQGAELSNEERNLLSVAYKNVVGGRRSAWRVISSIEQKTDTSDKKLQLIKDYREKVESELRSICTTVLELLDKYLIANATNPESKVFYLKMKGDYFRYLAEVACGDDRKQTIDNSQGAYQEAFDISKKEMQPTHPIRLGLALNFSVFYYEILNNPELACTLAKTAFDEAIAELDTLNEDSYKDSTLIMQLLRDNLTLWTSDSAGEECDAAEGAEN
Procedure: as §1, §2, §3

14-3-3 zeta [2] = biological target: T1, 14-3-3 zeta; experiment: Surface plasmon resonance, GST-14-3-3 zeta binding to immobilized biotinylated Raf-259 peptide (binding and kinetics); conditions: 14-3-3 zeta
Procedure: These experiments were performed using the BIAcore 2000 (Pharmacia). The basic principles and detection methods have been reviewed previously (Jonsson et al. Biotech. 11:620-7, 1991; Jonsson et al. Ann Bio Clin 51:19-26, 1993 which are incorporated by reference). In brief, 5 μl of the biotinylated raf-259 peptide (1 nM) was immobilized onto streptavidin-coated (SA5, Pharmacia) sensor chips at a flow rate of 5 μl/min at 25° C. […] To phosphorylate the immobilized peptides, 5 U of PKA in a buffer containing 200 μM ATP in 50 μl was infused over the chip at a flow rate of 2 μl/min at 30° C.
Because the surface plasmon resonance detects binding in real time, this method can be used to directly determine the rates of association (kon) and dissociation (koff). For these kinetic measurements, GST/14-3-3 fusion proteins were injected over a range of concentrations between 200 nM and 5 μM. The "on" rate, kon, was determined by calculating dR/dt for the initial linear portion of association using the Biaevaluation software (Pharmacia). Because ligand rebinding to the sensor chip can affect the "off" rate (koff, Panayotou et al. Mol Cell Biol 13:3567-76, 1993 which is incorporated by reference), we measured the "off" rate in the presence of 50 μM free ligand by using the coinject function of the Biacore. The "off" rate measured in the absence of 50 μM free ligand was approximately 10-fold lower.
The biotinylated, […] Raf-1 peptide (SEQ ID NO: 4) was coupled to avidin coated chip surface to study the kinetics of its binding to 14-3-3 zeta. The association rate was determined to be approximately 2.3×10^4 M^-1×s^-1 and the dissociation rate was determined to be approximately 2.8×10^-3 s^-1. To minimize the effects of protein rebinding to the surface of the sensor chip, the dissociation rate was measured in the presence of 50 μM free phosphorylated Raf-1 peptide.

14-3-3 zeta [3] = biological target: T1, 14-3-3 zeta; experiment: Displacement of 32P-labeled phosphorylated Raf-259 peptide from immobilized GST/14-3-3 zeta (scintigraphy); type: binding; conditions: non-radiolabeled competitors
Procedure: The 14-3-3 protein isoforms for use in binding studies with the above peptides were prepared as proteins fused with glutathione-S-transferase (GST) and immobilized to glutathione agarose beads. GST/14-3-3 fusion proteins were made by generating BamHI and EcoRI restriction endonuclease sites (underlined) at the 5' and 3' ends respectively of the 14-3-3 cDNAs by polymerase chain reaction (PCR) using the following isoform sequence specific pairs of primers: 14-3-3 beta, […] (SEQ ID NO: 11), […] (SEQ ID NO: 12); 14-3-3 eta […] (SEQ ID NO: 13), […] (SEQ ID NO: 14); 14-3-3 tau […] (SEQ ID NO: 15), […] (SEQ ID NO: 16); 14-3-3 zeta […] (SEQ ID NO: 17), […] (SEQ ID NO: 18). The cDNA products were digested with BamHI and EcoRI, subcloned into the vector pGEX-KT (Guan and Dixon, Anal Biochem 192: 262-7, 1991 which is incorporated by reference). The vector was used to transform the DH5α strain of E. Coli. GST-14-3-3 fusion protein expression in log-growth phase bacterial cultures was accomplished by induction with 100 μM isopropyl β-D-thiogalactopyranoside (IPTG; Gold Biotechnology, St. Louis) for 4 hours. Cells were disrupted by sonication and lysates, containing 1% Triton X-100, were incubated with glutathione agarose beads (Sigma, St. Louis) at 4° C. overnight. Fusion proteins were eluted by incubation with 10 mM reduced glutathione (Sigma, St. Louis) in phosphate buffered saline for 1 hour at room temperature, dialyzed in phosphate buffered saline and quantitated by Coomassie staining SDS polyacrylamine gels compared against bovine serum albumin standards.
The Raf-259 peptide (SEQ ID NO: 4) was phosphorylated in vitro using protein kinase A (PKA) and [^32 P]-γ-ATP following the manufacturers instruction (PKA, New England Biolabs) with 20 μCi of [^32 P]-γ-ATP (NEN-Dupont, 6000 Ci/mmol). The efficiency of phosphorylation was calculated to be between 7 and 12% based upon the specific activity of the labelled peptide.
The labeled peptide was then incubated with immobilized 14-3-3 zeta fusion protein and binding of the labelled peptide was measured. […] Binding was also sequence specific. […]

Compound: CC(C)C[C@H](N)C(=O)N[C@@H](CO)C(=O)N[C@@H](CCC(N)=O)C(=O)N[C@@H](C)C(=O)N[C@@H](CCC(N)=O)C(=O)N[C@@H](C)C(=O)N[C@@H](CO)C(=O)N[C@H](C(=O)N[C@@H](COP(=O)(O)O)C(=O)N[C@H](C(=O)N1CCC[C@H]1C(=O)N[C@@H](CC(N)=O)C(=O)N[C@H](C(=O)N[C@@H](Cc1c[nH]cn1)C(=O)N[C@@H](C)C(=O)O)C(C)C)[C@@H](C)O)[C@@H](C)O [254/256RA] (H-LSQAQAST[pS]TPNVHA-OH)
- IC50 (14-3-3 zeta [1]): > 50 µM
- IC50 (14-3-3 eta): > 50 µM
- IC50 (14-3-3 beta): > 50 µM
- IC50 (14-3-3 tau): > 50 µM

Compound: LSQRQRSTSTPNVHM [Raf-259, LSQRQRSTSTPNVHM, reference compound]
- Kd (14-3-3 zeta [2]; KD = koff/kon, read-out: apparent KD measured by SPR): ~0.122 µM
- koff (14-3-3 zeta [2]; in the presence of 50 μM free phosphorylated Raf-1 peptide, read-out: dissociation rate): ~0.0028 s⁻¹
- kon (14-3-3 zeta [2]; read-out: association rate): ~23000 M⁻¹ s⁻¹

Compound: CC(C)C[C@H](N)C(=O)N[C@@H](CO)C(=O)N[C@@H](CCC(N)=O)C(=O)N[C@@H](CCCNC(=N)N)C(=O)N[C@@H](CCC(N)=O)C(=O)N[C@@H](CCCNC(=N)N)C(=O)N[C@@H](COP(=O)(O)O)C(=O)N[C@H](C(=O)N[C@@H](CO)C(=O)N[C@H](C(=O)N1CCC[C@H]1C(=O)N[C@@H](CC(N)=O)C(=O)N[C@H](C(=O)N[C@@H](Cc1c[nH]cn1)C(=O)N[C@@H](C)C(=O)O)C(C)C)[C@@H](C)O)[C@@H](C)O [pS-Raf-257] (H-LSQRQR[pS]TSTPNVHA-OH)
- IC50 (14-3-3 zeta [1]): > 50 µM
- IC50 (14-3-3 eta): > 50 µM
- IC50 (14-3-3 beta): > 50 µM
- IC50 (14-3-3 tau): > 50 µM

Compound: CSCC[C@H](NC(=O)[C@H](Cc1c[nH]cn1)NC(=O)[C@@H](NC(=O)[C@H](CC(N)=O)NC(=O)[C@H](C)NC(=O)[C@@H](NC(=O)[C@H](COP(=O)(O)O)NC(=O)[C@@H](NC(=O)[C@H](CO)NC(=O)[C@H](CCCNC(=N)N)NC(=O)[C@H](CCC(N)=O)NC(=O)[C@H](CCCNC(=N)N)NC(=O)[C@H](CCC(N)=O)NC(=O)[C@H](CO)NC(=O)[C@@H](N)CC(C)C)[C@@H](C)O)[C@@H](C)O)C(C)C)C(=O)O [PA] (H-LSQRQRST[pS]TANVHM-OH)
- IC50 (14-3-3 zeta [1]): ~25 µM and 25 µM
- IC50 (14-3-3 eta): 20 µM
- IC50 (14-3-3 beta): 24 µM
- IC50 (14-3-3 tau): 27 µM

Compound: CC(C)C[C@H](N)C(=O)N[C@@H](CO)C(=O)N[C@@H](CCC(N)=O)C(=O)N[C@@H](CCCNC(=N)N)C(=O)N[C@@H](CCC(N)=O)C(=O)N[C@@H](CCCNC(=N)N)C(=O)N[C@@H](COP(=O)(O)O)C(=O)N[C@H](C(=O)N[C@@H](COP(=O)(O)O)C(=O)N[C@H](C(=O)N1CCC[C@H]1C(=O)N[C@@H](CC(N)=O)C(=O)N[C@H](C(=O)N[C@@H](Cc1c[nH]cn1)C(=O)N[C@@H](C)C(=O)O)C(C)C)[C@@H](C)O)[C@@H](C)O [pS-Raf-257,259] (H-LSQRQR[pS]T[pS]TPNVHA-OH)
- IC50 (14-3-3 zeta [1]): > 50 µM
- IC50 (14-3-3 eta): > 50 µM
- IC50 (14-3-3 beta): > 50 µM
- IC50 (14-3-3 tau): > 50 µM

Compound: N[C@@H](COP(=O)(O)O)C(=O)O [free phosphoserine, phosphoserine]
- displacement of bound labeled phosphorylated peptide from 14-3-3 zeta (14-3-3 zeta [3]): Neither

Source: patent US6207393A, “Inhibition of intracellular signal transduction by 14-3-3-binding peptides” (Washington University, priority 1999, dated 2001)
